# In DBAASP:
# What was measured:
# Assay in all cases: ≥ marks a high value that may be exact or a test limit, other limits are often not marked, values filed in µg/mL are converted to µM
# [1] = tested on: Enterococcus faecalis CIP 76.117
# Cryptococcus neoformans = tested on: Cryptococcus neoformans
# Staphylococcus aureus = tested on: Staphylococcus aureus
# Saccharomyces cerevisiae = tested on: Saccharomyces cerevisiae
# Streptococcus pneumoniae = tested on: Streptococcus pneumoniae
# Salmonella typhimurium = tested on: Salmonella typhimurium
# Candida albicans = tested on: Candida albicans
# Bacillus subtilis = tested on: Bacillus subtilis
# Streptococcus mutans = tested on: Streptococcus mutans
# Serratia marcescens = tested on: Serratia marcescens
# Escherichia coli = tested on: Escherichia coli
# Pseudomonas putida = tested on: Pseudomonas putida
# [2] = tested on: Acinetobacter baumannii ATCC 19606
# [3] = tested on: Cryptococcus neoformans ATCC 208821
# [4] = tested on: Pseudomonas aeruginosa ATCC 27853
# [5] = tested on: Staphylococcus aureus ATCC 43300
# [6] = tested on: Escherichia coli ATCC 25922
# [7] = tested on: Klebsiella pneumoniae ATCC 700603
# [8] = tested on: Candida albicans ATCC 90028
# Escherichia coli BW25113 = tested on: Escherichia coli BW25113
# Escherichia coli UB1005 = tested on: Escherichia coli UB1005
# [9] = tested on: Staphylococcus aureus ATCC 25923
# [10] = tested on: Staphylococcus epidermidis
# [11] = tested on: Salmonella enterica serovar Typhimurium
# [12] = tested on: Pseudomonas aeruginosa 919
# [13] = tested on: Pseudomonas aeruginosa 253
# [14] = tested on: Pseudomonas aeruginosa PAO1
# [15] = tested on: Enterococcus faecalis ATCC 29212
# [16] = tested on: Pseudomonas aeruginosa H103
# [17] = tested on: Pseudomonas aeruginosa 910
# [18] = tested on: Staphylococcus aureus ATCC 29213
# [19] = tested on: Salmonella enterica subsp. enterica serovar Typhimurium ATCC 14028
# [20] = tested on: Bacillus cereus ATCC 11778
# [21] = tested on: Klebsiella aerogenes ATCC 13048
compound,measurement,setting,value
CC[C@H](C)[C@H](NC(=O)[C@H](CCC(N)=O)NC(=O)[C@@H]1CCCN1C(=O)[C@H](CC(=O)O)NC(=O)[C@H](Cc1ccccc1)NC(=O)[C@@H](NC(=O)[C@H](Cc1cnc[nH]1)NC(=O)[C@H](Cc1cnc[nH]1)NC(=O)[C@H](Cc1ccccc1)NC(=O)[C@@H](N)Cc1ccccc1)[C@@H](C)CC)C(=O)N[C@@H](CCCCN)C(=O)N[C@@H](CO)C(=O)NCC(=O)N[C@@H](CC(C)C)C(=O)N[C@@H](CC(C)C)C(=O)N[C@H](C(=O)N[C@@H](CO)C(=O)N[C@@H](CCSC)C(=O)N[C@@H](Cc1ccc(O)cc1)C(=O)N[C@@H](CC(=O)O)C(=O)O)C(C)C [FFHHIFDPQIKSGLLVSMYD],MIC,[1],≥ 122 µM
CC(C)C[C@H](NC(=O)[C@H](CC(C)C)NC(=O)[C@H](CCCN=C(N)N)NC(=O)[C@H](Cc1cnc[nH]1)NC(=O)[C@@H](NC(=O)[C@H](CCCN=C(N)N)NC(=O)CNC(=O)[C@@H](NC(=O)[C@@H]1CCCN1)C(C)C)C(C)C)C(=O)N[C@@H](CCCN=C(N)N)C(=O)N[C@@H](CCCCN)C(=O)O [PVGRVHRLLRK],MIC,Cryptococcus neoformans,≥ 96.2 µM
same,MIC,Staphylococcus aureus,48.1 µM
same,MIC,Saccharomyces cerevisiae,≥ 96.2 µM
same,MIC,Streptococcus pneumoniae,≥ 48.1 µM
same,MIC,Salmonella typhimurium,24 µM
same,MIC,Candida albicans,48.1 µM
same,MIC,Bacillus subtilis,24 µM
same,MIC,Streptococcus mutans,24 µM
same,MIC,Serratia marcescens,≥ 48.1 µM
same,MIC,Escherichia coli,24 µM
same,MIC,Pseudomonas putida,≥ 48.1 µM
NCC(=O)N[C@@H](CCCN=C(N)N)C(=O)N[C@@H](CCCN=C(N)N)C(=O)NCC(=O)NCC(=O)N[C@@H](CCCN=C(N)N)C(=O)NCC(=O)NCC(=O)N[C@@H](CCCN=C(N)N)C(=O)NCC(=O)N[C@@H](CCCN=C(N)N)C(=O)NCC(=O)N[C@@H](CCCN=C(N)N)C(=O)O [GRRGGRGGRGRGR],MIC,[2],> 23.6 µM
same,MIC,[3],23.6 µM
same,MIC,[4],> 23.6 µM
same,MIC,[5],> 23.6 µM
same,MIC,[6],> 23.6 µM
same,MIC,[7],> 23.6 µM
same,MIC,[8],23.6 µM
CC[C@H](C)[C@H](NC(=O)[C@@H]1CCCN1C(=O)[C@H](Cc1c[nH]c2ccccc12)NC(=O)[C@H](CCCN=C(N)N)NC(=O)[C@H](Cc1ccccc1)NC(=O)[C@@H](N)CCCN=C(N)N)C(=O)N[C@@H](CCCN=C(N)N)C(=O)N[C@@H](CCCN=C(N)N)C(=O)N[C@@H](CCCN=C(N)N)C(=O)N1CCC[C@H]1C(=O)N[C@H](C(=O)N[C@@H](CCCN=C(N)N)C(=O)N1CCC[C@H]1C(=O)N1CCC[C@H]1C(=O)N[C@@H](Cc1c[nH]c2ccccc12)C(=O)N[C@@H](Cc1ccc(O)cc1)C(=O)N[C@@H](CCCN=C(N)N)C(=O)O)[C@@H](C)CC [RFRWPIRRRPIRPPWYR],MIC,Escherichia coli BW25113,4 µM
CC[C@H](C)[C@H](NC(=O)[C@H](CCCN=C(N)N)NC(=O)[C@H](C)NC(=O)CNC(=O)[C@@H](N)CCCN=C(N)N)C(=O)N[C@H](C(=O)N[C@H](C(=O)N[C@H](C(=O)N[C@@H](CCCN=C(N)N)C(=O)N[C@H](C(=O)N[C@@H](C)C(=O)N[C@@H](CCCN=C(N)N)C(N)=O)C(C)C)[C@@H](C)CC)C(C)C)C(C)C [RGARIVVIRVAR],MIC,Escherichia coli UB1005,5.86 µM
same,MIC,[9],22.7 µM
same,MIC,[10],11.7 µM
same,MIC,[11],22.7 µM
same,MIC,Candida albicans,11.7 µM
same,MIC,[12],16 µM
same,MIC,[13],≥ 32 µM
same,MIC,[14],32 µM
same,MIC,[15],22.7 µM
same,MIC,[16],22.7 µM
same,MIC,[17],≥ 32 µM
CC[C@H](C)[C@H](N)C(=O)N[C@@H](CC(C)C)C(=O)NCC(=O)N[C@@H](C)C(=O)N[C@@H](C)C(=O)N[C@@H](Cc1c[nH]c2ccccc12)C(=O)N[C@@H](CC(N)=O)C(=O)NCC(=O)N[C@@H](C)C(=O)N[C@@H](CCCCN)C(=O)N[C@@H](CO)C(=O)N[C@@H](CC(C)C)C(=O)N[C@@H](Cc1ccccc1)C(N)=O [ILGAAWNGAKSLF],MIC,[18],> 74.2 µM
same,MIC,[6],> 74.2 µM
same,MIC,[19],> 74.2 µM
same,MIC,[20],≥ 74.2 µM
same,MIC,[21],≥ 74.2 µM
CC[C@H](C)[C@H](N)C(=O)N[C@@H](CC(C)C)C(=O)N[C@@H](CCCCN)C(=O)N[C@@H](Cc1c[nH]c2ccccc12)C(=O)N[C@@H](CCCCN)C(=O)N[C@H](C(=O)N[C@@H](Cc1ccccc1)C(=O)N[C@@H](CCCCN)C(=O)N[C@@H](Cc1c[nH]c2ccccc12)C(=O)N[C@@H](CCCCN)C(=O)N[C@@H](Cc1c[nH]c2ccccc12)C(=O)N[C@@H](Cc1ccccc1)C(=O)N[C@@H](CCCN=C(N)N)C(N)=O)[C@@H](C)CC [ILKWKIFKWKWFR],MIC,[12],≥ 32 µM
same,MIC,[13],11.3 µM
same,MIC,[14],2 µM
same,MIC,[17],4 µM
CC[C@H](C)[C@H](NC(=O)[C@@H]1CCCN1C(=O)[C@@H]1CCCN1C(=O)[C@H](CCCN=C(N)N)NC(=O)[C@H](Cc1c[nH]c2ccccc12)NC(=O)[C@@H](N)CCCN=C(N)N)C(=O)N[C@@H](CCCN=C(N)N)C(=O)N[C@@H](CCCN=C(N)N)C(=O)N1CCC[C@H]1C(=O)N1CCC[C@H]1C(=O)N[C@H](C(=O)N[C@@H](CCCN=C(N)N)C(=O)N1CCC[C@H]1C(=O)N1CCC[C@H]1C(=O)N[C@@H](Cc1ccccc1)C(=O)N[C@@H](Cc1ccc(O)cc1)C(=O)N1CCC[C@H]1C(=O)O)[C@@H](C)CC [RWRPPIRRPPIRPPFYP],MIC,Escherichia coli BW25113,16 µM
CC[C@H](C)[C@H](NC(=O)[C@H](CCCN=C(N)N)NC(=O)[C@H](CCCN=C(N)N)NC(=O)[C@H](CC(C)C)NC(=O)[C@@H](N)CCCN=C(N)N)C(=O)N[C@H](C(=O)N[C@H](C(=O)N[C@H](C(=O)N[C@@H](CCCN=C(N)N)C(=O)N[C@H](C(=O)N[C@@H](C)C(=O)N[C@@H](CCCN=C(N)N)C(=O)O)C(C)C)[C@@H](C)CC)C(C)C)C(C)C [RLRRIVVIRVAR],MIC,Escherichia coli UB1005,2.65 µM
same,MIC,[9],5.31 µM
same,MIC,[10],1.33 µM
same,MIC,[11],5.31 µM
same,MIC,Candida albicans,10.6 µM
same,MIC,[12],16 µM
same,MIC,[13],16 µM
same,MIC,[14],16 µM
same,MIC,[15],5.31 µM
same,MIC,[16],5.31 µM
same,MIC,[17],≥ 32 µM
NC(=O)CC[C@H](NC(=O)[C@H](Cc1cnc[nH]1)NC(=O)[C@H](CO)NC(=O)[C@H](CCCN=C(N)N)NC(=O)[C@H](Cc1ccccc1)NC(=O)[C@H](Cc1cnc[nH]1)NC(=O)[C@H](CCCN=C(N)N)NC(=O)[C@H](Cc1cnc[nH]1)NC(=O)[C@H](Cc1cnc[nH]1)NC(=O)[C@@H](N)CO)C(=O)N[C@@H](CS)C(=O)N[C@@H](CCCN=C(N)N)C(=O)O [SHHRHFRSHQCR],MIC,[2],> 20.2 µM
same,MIC,[3],20.2 µM
same,MIC,[4],> 20.2 µM
same,MIC,[5],> 20.2 µM
same,MIC,[6],> 20.2 µM
same,MIC,[7],> 20.2 µM
same,MIC,[8],20.2 µM
